Key:
Assay in all cases: biochemical
Design in all cases: KINOMEscan competition binding panel (Eurofins DiscoverX), single concentration, percent inhibition
Details in all cases: read-out: 15 at 1 µM % inhibition
MAP3K2 = MAP3K2 (Homo sapiens, UniProt Q9Y2U5)
How it was run: (§1)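 Compounds were submitted at 1 µM to a KINOMEscan assay covering more than 400 human kinases. The screen served to define the selectivity profile.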

MST1 = target: T1, MST1 (Homo sapiens, UniProt Q13043)
T1 construct: gene STK4
How it was run: as §1

EGFR(S752-I759del) = EGFR(S752-I759del) (Homo sapiens, UniProt P00533, DEL752-759)
How it was run: as §1

IKK-beta = target: T2, IKK-beta (Homo sapiens, UniProt O14920)
T2 construct: gene IKBKB
T2 sequence (O14920 whole entry): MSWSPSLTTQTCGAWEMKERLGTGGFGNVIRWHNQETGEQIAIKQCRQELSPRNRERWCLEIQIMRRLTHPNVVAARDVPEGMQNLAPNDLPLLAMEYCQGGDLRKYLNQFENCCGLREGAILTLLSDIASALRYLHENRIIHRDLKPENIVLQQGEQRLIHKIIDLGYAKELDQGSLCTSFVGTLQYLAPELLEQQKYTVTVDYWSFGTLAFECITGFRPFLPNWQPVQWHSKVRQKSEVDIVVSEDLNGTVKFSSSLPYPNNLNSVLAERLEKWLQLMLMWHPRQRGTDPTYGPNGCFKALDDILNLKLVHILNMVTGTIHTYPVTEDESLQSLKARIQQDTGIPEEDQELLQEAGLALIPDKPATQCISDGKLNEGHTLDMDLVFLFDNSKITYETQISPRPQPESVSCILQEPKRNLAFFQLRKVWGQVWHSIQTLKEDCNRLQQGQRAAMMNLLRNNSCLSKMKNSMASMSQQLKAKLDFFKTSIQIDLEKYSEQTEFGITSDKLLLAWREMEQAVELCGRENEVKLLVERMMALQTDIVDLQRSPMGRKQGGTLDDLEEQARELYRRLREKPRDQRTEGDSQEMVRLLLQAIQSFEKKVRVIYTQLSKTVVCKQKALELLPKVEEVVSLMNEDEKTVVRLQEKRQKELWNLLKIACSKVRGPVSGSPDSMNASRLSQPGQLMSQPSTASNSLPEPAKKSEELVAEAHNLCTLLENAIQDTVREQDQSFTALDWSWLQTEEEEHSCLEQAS
How it was run: as §1

PDGFRB = PDGFRB (Homo sapiens, UniProt P09619)
How it was run: as §1

VPS34 = target: T3, VPS34 (Homo sapiens, UniProt Q8NEB9)
T3 construct: gene PIK3C3
How it was run: as §1

RIOK2 = RIOK2 (Homo sapiens, UniProt Q9BVS4)
How it was run: as §1

CSNK1D = CSNK1D (Homo sapiens, UniProt P48730)
How it was run: as §1

ACVR1 = ACVR1 (Homo sapiens, UniProt Q04771)
How it was run: as §1

SGK3 = SGK3 (Homo sapiens, UniProt Q96BR1)
How it was run: as §1

SgK110 = target: T4, SgK110 (Homo sapiens, UniProt P0C264)
T4 construct: gene SBK3
T4 sequence (P0C264 whole entry): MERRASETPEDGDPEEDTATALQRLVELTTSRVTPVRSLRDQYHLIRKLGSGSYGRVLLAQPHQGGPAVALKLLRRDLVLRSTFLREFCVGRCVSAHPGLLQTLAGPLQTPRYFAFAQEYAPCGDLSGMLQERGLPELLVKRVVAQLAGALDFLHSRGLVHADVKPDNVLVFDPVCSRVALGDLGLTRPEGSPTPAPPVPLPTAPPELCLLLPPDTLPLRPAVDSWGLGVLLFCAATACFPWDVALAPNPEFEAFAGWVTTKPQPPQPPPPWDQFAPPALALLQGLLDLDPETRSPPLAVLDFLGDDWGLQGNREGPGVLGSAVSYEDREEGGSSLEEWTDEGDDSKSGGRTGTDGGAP
How it was run: as §1

ABL1-phosphorylated = target: T5, ABL1-phosphorylated (Homo sapiens, UniProt P00519)
T5 construct: phosphorylated
How it was run: as §1

CDKL5 = CDKL5 (Homo sapiens, UniProt O76039)
CDKL5, sequence (O76039 whole entry): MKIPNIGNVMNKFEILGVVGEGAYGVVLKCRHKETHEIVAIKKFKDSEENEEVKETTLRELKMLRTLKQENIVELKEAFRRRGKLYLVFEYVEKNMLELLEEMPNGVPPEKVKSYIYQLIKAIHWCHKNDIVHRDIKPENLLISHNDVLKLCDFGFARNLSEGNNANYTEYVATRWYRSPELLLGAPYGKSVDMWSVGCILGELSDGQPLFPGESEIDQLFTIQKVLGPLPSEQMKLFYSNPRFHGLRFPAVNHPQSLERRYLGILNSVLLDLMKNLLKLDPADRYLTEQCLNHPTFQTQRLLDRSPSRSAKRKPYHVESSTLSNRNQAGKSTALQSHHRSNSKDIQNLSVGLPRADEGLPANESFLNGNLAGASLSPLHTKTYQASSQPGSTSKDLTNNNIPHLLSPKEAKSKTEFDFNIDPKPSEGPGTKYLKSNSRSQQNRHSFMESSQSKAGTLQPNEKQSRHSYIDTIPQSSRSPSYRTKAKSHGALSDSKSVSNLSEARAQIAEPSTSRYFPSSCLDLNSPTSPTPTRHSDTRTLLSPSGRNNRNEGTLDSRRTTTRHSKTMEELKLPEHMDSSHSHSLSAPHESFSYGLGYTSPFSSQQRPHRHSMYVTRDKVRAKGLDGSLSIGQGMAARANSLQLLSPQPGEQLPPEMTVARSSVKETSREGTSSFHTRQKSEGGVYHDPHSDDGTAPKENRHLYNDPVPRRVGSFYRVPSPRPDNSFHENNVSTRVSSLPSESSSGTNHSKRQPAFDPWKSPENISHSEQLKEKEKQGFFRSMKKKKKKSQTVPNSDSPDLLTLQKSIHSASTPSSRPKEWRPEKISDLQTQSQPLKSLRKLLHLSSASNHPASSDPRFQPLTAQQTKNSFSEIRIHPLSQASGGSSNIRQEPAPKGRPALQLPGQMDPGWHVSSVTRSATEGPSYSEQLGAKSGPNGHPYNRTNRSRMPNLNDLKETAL
How it was run: as §1

NEK7 = NEK7 (Homo sapiens, UniProt Q8TDX7)
How it was run: as §1

PRKCE = PRKCE (Homo sapiens, UniProt Q02156)
How it was run: as §1

INSRR = INSRR (Homo sapiens, UniProt P14616)
How it was run: as §1

RET(M918T) = RET(M918T) (Homo sapiens, UniProt P07949, M918T)
How it was run: as §1

MLK3 = target: T6, MLK3 (Homo sapiens, UniProt Q16584)
T6 construct: gene MAP3K11
How it was run: as §1

CDKL2 = CDKL2 (Homo sapiens, UniProt Q92772)
CDKL2, sequence (Q92772 whole entry): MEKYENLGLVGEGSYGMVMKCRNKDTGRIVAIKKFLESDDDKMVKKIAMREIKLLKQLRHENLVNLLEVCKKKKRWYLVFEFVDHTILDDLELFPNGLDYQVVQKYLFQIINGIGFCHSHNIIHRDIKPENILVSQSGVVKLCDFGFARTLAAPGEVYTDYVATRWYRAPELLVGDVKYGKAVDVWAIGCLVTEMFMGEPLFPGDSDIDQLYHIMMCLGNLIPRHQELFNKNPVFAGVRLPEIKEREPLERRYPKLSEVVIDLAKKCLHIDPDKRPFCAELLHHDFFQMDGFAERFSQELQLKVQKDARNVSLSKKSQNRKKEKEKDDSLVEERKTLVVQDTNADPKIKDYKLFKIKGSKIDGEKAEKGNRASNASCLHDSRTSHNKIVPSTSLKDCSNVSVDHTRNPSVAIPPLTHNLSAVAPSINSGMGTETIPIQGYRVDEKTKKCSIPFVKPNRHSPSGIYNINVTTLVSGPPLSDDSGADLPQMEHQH
How it was run: as §1

BLK = BLK (Homo sapiens, UniProt P51451)
How it was run: as §1

KIT(V559D) = KIT(V559D) (Homo sapiens, UniProt P10721, V559D)
How it was run: as §1

SIK2 = SIK2 (Homo sapiens, UniProt Q9H0K1)
SIK2, sequence (Q9H0K1 whole entry): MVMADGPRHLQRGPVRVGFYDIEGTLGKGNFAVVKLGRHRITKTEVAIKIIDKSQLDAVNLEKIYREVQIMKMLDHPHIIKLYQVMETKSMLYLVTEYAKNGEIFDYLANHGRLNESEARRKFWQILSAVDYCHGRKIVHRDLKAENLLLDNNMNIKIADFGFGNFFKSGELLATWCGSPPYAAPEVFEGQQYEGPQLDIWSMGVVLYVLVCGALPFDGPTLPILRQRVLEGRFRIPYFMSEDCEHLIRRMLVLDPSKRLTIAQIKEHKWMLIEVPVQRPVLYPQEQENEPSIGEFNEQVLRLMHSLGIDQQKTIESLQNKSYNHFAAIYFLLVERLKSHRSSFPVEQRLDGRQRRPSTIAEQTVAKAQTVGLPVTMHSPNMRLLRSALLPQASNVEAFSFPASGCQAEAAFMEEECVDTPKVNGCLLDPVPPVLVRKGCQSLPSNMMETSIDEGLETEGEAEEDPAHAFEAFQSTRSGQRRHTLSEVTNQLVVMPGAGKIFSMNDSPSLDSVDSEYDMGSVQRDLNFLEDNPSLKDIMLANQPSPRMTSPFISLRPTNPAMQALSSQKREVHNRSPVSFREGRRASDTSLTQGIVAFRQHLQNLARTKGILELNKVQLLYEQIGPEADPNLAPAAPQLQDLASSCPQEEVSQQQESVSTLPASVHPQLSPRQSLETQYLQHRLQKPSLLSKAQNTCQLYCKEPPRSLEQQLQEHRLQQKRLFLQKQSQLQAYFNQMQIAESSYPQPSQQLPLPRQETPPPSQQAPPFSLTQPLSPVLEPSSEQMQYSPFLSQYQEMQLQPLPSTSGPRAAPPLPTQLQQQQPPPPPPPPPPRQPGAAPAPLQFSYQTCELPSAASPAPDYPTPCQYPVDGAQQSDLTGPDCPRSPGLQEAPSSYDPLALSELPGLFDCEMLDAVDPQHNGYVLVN
How it was run: as §1

ERK4 = target: T7, ERK4 (Homo sapiens, UniProt P31152)
T7 construct: gene MAPK4
How it was run: as §1

BRAF = BRAF (Homo sapiens, UniProt P15056)
BRAF, sequence (P15056 whole entry): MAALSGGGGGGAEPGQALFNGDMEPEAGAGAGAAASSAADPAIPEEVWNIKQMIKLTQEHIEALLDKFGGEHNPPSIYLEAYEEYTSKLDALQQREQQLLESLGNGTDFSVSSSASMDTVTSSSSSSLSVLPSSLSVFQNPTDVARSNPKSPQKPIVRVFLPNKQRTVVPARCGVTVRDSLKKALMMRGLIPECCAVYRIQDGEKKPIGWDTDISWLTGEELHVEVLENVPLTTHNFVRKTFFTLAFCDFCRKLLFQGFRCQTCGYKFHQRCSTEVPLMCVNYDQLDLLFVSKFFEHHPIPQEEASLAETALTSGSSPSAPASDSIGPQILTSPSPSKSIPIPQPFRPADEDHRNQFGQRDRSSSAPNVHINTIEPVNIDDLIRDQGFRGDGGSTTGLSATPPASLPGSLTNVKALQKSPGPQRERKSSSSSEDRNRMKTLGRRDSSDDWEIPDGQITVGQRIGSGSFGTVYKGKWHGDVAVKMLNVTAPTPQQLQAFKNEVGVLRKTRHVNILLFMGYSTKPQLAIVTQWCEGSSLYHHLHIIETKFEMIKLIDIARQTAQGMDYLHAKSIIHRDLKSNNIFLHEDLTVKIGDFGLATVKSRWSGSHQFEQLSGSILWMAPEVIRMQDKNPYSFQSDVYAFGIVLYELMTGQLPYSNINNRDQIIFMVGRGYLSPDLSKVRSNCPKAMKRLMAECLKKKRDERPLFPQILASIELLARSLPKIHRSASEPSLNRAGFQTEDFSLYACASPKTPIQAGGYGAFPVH
How it was run: as §1

MAP3K2, sequence (Q9Y2U5 whole entry): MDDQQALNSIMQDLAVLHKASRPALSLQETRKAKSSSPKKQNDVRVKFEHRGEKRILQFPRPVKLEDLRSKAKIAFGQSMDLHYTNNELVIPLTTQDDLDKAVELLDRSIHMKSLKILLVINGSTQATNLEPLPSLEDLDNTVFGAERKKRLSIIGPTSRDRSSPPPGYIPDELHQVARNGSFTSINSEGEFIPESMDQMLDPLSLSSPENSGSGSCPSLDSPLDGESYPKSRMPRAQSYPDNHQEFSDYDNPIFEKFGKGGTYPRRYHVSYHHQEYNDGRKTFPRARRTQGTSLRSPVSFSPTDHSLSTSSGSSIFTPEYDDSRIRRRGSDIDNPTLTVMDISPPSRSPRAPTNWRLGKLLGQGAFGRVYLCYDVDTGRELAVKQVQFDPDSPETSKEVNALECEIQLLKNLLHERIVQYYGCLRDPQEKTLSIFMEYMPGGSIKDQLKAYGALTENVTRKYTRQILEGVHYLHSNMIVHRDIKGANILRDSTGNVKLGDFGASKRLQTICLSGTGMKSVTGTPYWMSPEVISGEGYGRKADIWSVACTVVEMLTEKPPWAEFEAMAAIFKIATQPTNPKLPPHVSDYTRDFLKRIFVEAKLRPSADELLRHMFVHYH

- inhibition at 1 µM (MAP3K2): 18%
- inhibition at 1 µM (MST1): 5%
- inhibition at 1 µM (EGFR(S752-I759del)): 9%
- inhibition at 1 µM (IKK-beta): 37%
- inhibition at 1 µM (PDGFRB): 10%
- inhibition at 1 µM (VPS34): 25%
- inhibition at 1 µM (RIOK2): 9%
- inhibition at 1 µM (CSNK1D): 0%
- inhibition at 1 µM (ACVR1): 0%
- inhibition at 1 µM (SGK3): 19%
- inhibition at 1 µM (SgK110): 0%
- inhibition at 1 µM (ABL1-phosphorylated): 0%
- inhibition at 1 µM (CDKL5): 19%
- inhibition at 1 µM (NEK7): 2%
- inhibition at 1 µM (PRKCE): 11%
- inhibition at 1 µM (INSRR): 22%
- inhibition at 1 µM (RET(M918T)): 0%
- inhibition at 1 µM (MLK3): 0%
- inhibition at 1 µM (CDKL2): 4%
- inhibition at 1 µM (BLK): 0%
- inhibition at 1 µM (KIT(V559D)): 0%
- inhibition at 1 µM (SIK2): 4%
- inhibition at 1 µM (ERK4): 0%
- inhibition at 1 µM (BRAF): 20%
SMILES: CNS(=O)(=O)c1ccc(N(C)C)c(Nc2nc(C)nc3cc(OC)c(OC)cc23)c1 [compound 15, 3-((6,7-dimethoxy-2-methylquinazolin-4-yl)amino)-4-(dimethylamino)-N-methylbenzenesulfonamide]

Source: PMC7180948, “New Insights into 4-Anilinoquinazolines as Inhibitors of Cardiac Troponin I–Interacting Kinase (TNNi3K)” (Molecules, 2020)
